{"source": "patent US20100016240A1", "about": "“FACILITATING CELLS AND DIABETES AND METHODS RELATED THERETO” (priority 2008, published 2010)", "key": {"[1]": {"test_system": "p-preDC FC", "conditions": "cited from earlier work"}, "[2]": {"test_system": "p-preDC FC from NOD or NOR mice", "assay": "Chemokine and cytokine production by p-preDC FC after CpG-ODN stimulation (LINCOplex multiplex immunoassay)", "format": "cell-based, mouse", "method": "(§1) FIG. 2. Expression of activation markers on FC. (A) Sorted CD8^+/TCR^− FC (100,000) from NOD or NOR BM were cultured with medium or CpG-ODN for 18 h and stained with anti-MHC Class II I-A^d, CD86 or CD80 FITC labeled mAb, or isotype controls. The data shown are representative of three experiments. (B) Level of expression of activation markers on FC with or without CpG-ODN stimulation. The results are percent of CD8^+/TCR^− FC total from 3 separate experiments. (C) The morphology of FC was examined using Wright-Giemsa staining under optical microscopy after CpG-ODN stimulation. (D) P-preDC FC were cultured with CpG-ODN or medium only. Culture cell-free supernatants were collected after 18 h and MIP-1α/CCL3, MCP-1/CCL2, RANTES/CCL5, IP-10, IL-6, GM-CSF, and TNF-α were measured by LINCO plex multiplex immunoassay.\n(§2) FC were cultured alone or with 1 μM TLR-9 ligand CpG-ODN 1668 (TCCATGACGTTCCGATGCT) (SEQ ID NO:1) (GIBCO BRL Custom Primers) (13) for 18 h. Supernatants were assayed for cytokines by Linco Diagnostic (St Charles, Mo.) using LINCOplex™ Multiplex immunoassay and cells were stained with anti-CD80, anti-CD86, or anti-MHC class II I-A^d (39-10-8) FITC mAb, with appropriately matched isotype controls.\nWe also examined chemokine and cytokine production by NOD and NOR p-preDC FC after CpG-ODN stimulation. In the presence of CpG-ODN, p-preDC FC produced more MIP-1α/CCL3, RANTES/CCL5, IP-10, IL-6, and TNF-α, compared to the level of those in absence of stimulation (FIG. 2D)."}, "[3]": {"test_system": "CD8+/TCR- FC from NOD or NOR BM", "assay": "Activation markers and morphology of sorted CD8+/TCR- FC cultured with CpG-ODN", "format": "cell-based, mouse", "method": "as §1, §2\n(§3) Wright-Giemsa staining was performed on cytospins of 100,000 FC after fixed in methanol. Slides were examined for dendritic morphology under optical microscopy.\nWe evaluated whether NOD FC resemble NOR FC in response to CpG-ODN stimulation."}, "[4]": {"test_system": "PB p-preDC", "conditions": "administration of FL into human volunteers; cited from earlier work"}, "[5]": {"test_system": "NOD mice", "conditions": "cited from earlier work"}, "[6]": {"test_system": "FC in peripheral blood of NOD mice", "assay": "FL treatment of NOD donor mice: phenotype and morphology of FL-mobilized PB FC", "format": "in vivo, mouse", "method": "(§4) FIG. 6. FL-mobilized PB FC facilitate HSC engraftment in allogeneic recipients. Recombinant human FL (expressed from CHO cells) (kindly provided by Amgen; Thousand Oaks, Calif.) was diluted in 0.1% mouse serum albumin (MSA; Sigma, St Louis, Mo.) at a concentration of 100 μg/ml. Donor NOD female mice were injected with 10 μg of FL once daily subcutaneously from day 0 to day 9. Control mice received saline injections. (A) Flow cytometric analysis of subpopulations in sorted FL-mobilized PB FC. (B) Sorted FL-PB FC were examined after Wright-Giemsa staining by optical microscopy. (C) Survival of recipients of HSC plus FL-mobilized PB FC in allogeneic model (NOD→B10). B10 recipients were conditioned with 950 cGy TBI and transplanted with […] from untreated NOD donors either alone or mixed with 30,000 purified FC from untreated NOD bone marrow, or from FL-mobilized PB FC from NOD mice. (D) and (E) Multilineage typing of representative B10 recipients of NOD HSC alone or recipients of NOD HSC plus FL-PB FC. Multilineage data are from PB 3 months after transplantation and analyzed based on the lymphoid and myeloid gate. Data shown are from one representative recipient. A total of 3 to 5 recipients were analyzed per group.\nSorted FC (purity was ≧95%) were incubated with Fc receptor block (anti-CD16/CD32) before staining with lineage-specific markers: anti-CD11 FITC, CD11b APC, CD14 FITC, NK1.1 FITC, DX5 FITC, B220 PerCP, Gr-1 APC and CD19 APC, as previously described (4). Sorted FC were analyzed for p-preDC FC as B220^+/CD11c^+/CD11b^− using Cell Quest Software (Becton Dickinson).\nas §3\nTo test whether FL-treatment can restore the function of NOD FC, the phenotype and function of FL-PB FCs were evaluated. NOD mice were treated with FL for 10 days. FC were sorted from PB, and sorted FC were stained with B220, CD11c, CD19, NK1.1DX5, and CD11b mAbs."}, "[7]": {"test_system": "HSC engraftment in B10 recipients", "assay": "Facilitation of HSC engraftment by FL-mobilized PB FC in allogeneic recipients (NOD to B10)", "format": "in vivo, mouse", "method": "as §4\nIn the syngeneic model, recipients were conditioned with 950 cGy TBI from a Cesium source (Nordion, Ontario, ON, Canada) and transplanted with 500 HSC±30,000 FC populations by tail vein injection≧6 h after irradiation (14). In the allogeneic model, recipients conditioned with 950 cGy TBI were transplanted with 5,000 HSC±30,000 FL-PB FC (4).\nEngraftment of donor cells was evaluated by PBL typing using 3-color flow cytometry, as previously described (15).\nIt was next evaluated whether FL-treatment can restore the facilitating function of NOD FC. […] To test function of FL-PB FC, HSC were sorted from BM of untreated NOD mice and FC from the PB of FL-treated NOD mice. Conditioned B10 recipients received 5,000 HSC plus 30,000 FL-PB FC. Control mice were transplanted with 5,000 HSC±30,000 FC from BM of untreated NOD mice. […] 13% and 20% of recipients of HSC alone (n=9) or HSC plus FC (n=8) from untreated NOD mice survived over 120 days, respectively (FIG. 6C).\nThree-color flow cytometric analysis was performed."}, "[8]": {"conditions": "in response to CpG-ODN stimulation"}, "[9]": {"conditions": "with CpG-ODN compared to absence of stimulation, 18 h supernatant"}, "[10]": {"conditions": "FL-PB FC versus untreated NOD BM FC"}, "[11]": {"conditions": "NOD mice, 10 μg FL once daily s.c. for 10 days, FC sorted from PB"}, "[12]": {"conditions": "treatment of NOD donors with FL"}}, "data": [{"molecule": "CpG-ODN: TLR-9 ligand CpG-ODN 1668 (TCCATGACGTTCCGATGCT) (SEQ ID NO:1) (listed as DNA, chemistry not given here)", "values": [{"measurement": "Interferon (IFN)-α and tumor necrosis factor (TNF)-α production by p-preDC FC", "setting": "[1]; in response to TLR-9 ligand (CpG-ODN) stimulation", "value": "produce"}, {"measurement": "CD4+/CD25- T cells differentiation into CD4+/CD25+/FoxP3+ Treg cells in vitro", "setting": "[1]; p-preDC FC stimulated with CpG-ODN", "value": "promote"}, {"measurement": "IL-6 amount, NOR p-preDC FC compared to NOD p-preDC FC", "setting": "[2]; after CpG-ODN stimulation", "value": 5, "unit": "×"}, {"measurement": "MIP-1α/CCL3 amount, NOR p-preDC FC compared to NOD p-preDC FC", "setting": "[2]; after CpG-ODN stimulation", "value": 2.1, "unit": "×"}, {"measurement": "RANTES/CCL5 amount, NOR p-preDC FC compared to NOD p-preDC FC", "setting": "[2]; after CpG-ODN stimulation", "value": 3.5, "unit": "×"}, {"measurement": "TNF-α amount, NOR p-preDC FC compared to NOD p-preDC FC", "setting": "[2]; after CpG-ODN stimulation", "value": 1.9, "unit": "×"}, {"measurement": "GM-CSF production by NOD p-preDC FC", "setting": "[2]; [8]", "value": "do not"}, {"measurement": "GM-CSF production by NOR p-preDC FC", "setting": "[2]; [8]", "value": "more efficiently"}, {"measurement": "IL-6 production by p-preDC FC", "setting": "[2]; [9]", "value": "produced more"}, {"measurement": "IP-10 production by p-preDC FC", "setting": "[2]; [9]", "value": "produced more"}, {"measurement": "MIP-1α/CCL3 production by p-preDC FC", "setting": "[2]; [9]", "value": "produced more"}, {"measurement": "RANTES/CCL5 production by p-preDC FC", "setting": "[2]; [9]", "value": "produced more"}, {"measurement": "TNF-α production by p-preDC FC", "setting": "[2]; [9]", "value": "produced more"}, {"measurement": "CD80 expression on NOD FC", "setting": "[3]; NOD BM FC, 1 μM CpG-ODN, 18 h", "value": "markedly decreased"}, {"measurement": "CD86 expression on NOD FC", "setting": "[3]; NOD BM FC, 1 μM CpG-ODN, 18 h", "value": "up-regulated"}, {"measurement": "Morphology of NOD FC", "setting": "[3]; NOD FC after CpG treatment, Wright-Giemsa", "value": "did not exhibit a mature morphology"}, {"measurement": "CD86 expression on NOR FC", "setting": "[3]; NOR BM FC, 1 μM CpG-ODN, 18 h", "value": "up-regulated"}, {"measurement": "Morphology / activation state of NOR FC", "setting": "[3]; NOR FC after CpG-ODN stimulation, compared to NOD FC, Wright-Giemsa", "value": "more activated state"}]}, {"molecule": "FL: Recombinant human FL (expressed from CHO cells), provided by Amgen; human FLT3 ligand sequence shown in SEQ ID NO:2 (protein, Homo sapien) MTVLAPAWSPTTYLLLLLLLSSGLSGTQDCSFQHSPISSDFAVKIRELSDYLLQDYPVTVASNLQDEELCGGLWRLVLAQRWMERLKTVAGSKMQGLLERVNTEIHFVTKCAFQPPPSCLRFVQTNISRLLQETSEQLVALKPWITRQNFSRCLELQCQPDSSTLPPPWSPRPLEATAPTAPQPPLLLLLLLPVGLLLLAAAWCLHWQRTRRRTPRPGEQVPPVPSPQDLLLVEH", "values": [{"measurement": "Number of PB p-preDC in humans", "setting": "[4]", "value": "increase"}, {"measurement": "Diabetes progression", "setting": "[5]; FL treatment of NOD mice", "value": "significant delay"}, {"measurement": "Production of defective mature myeloid DC, plasmacytoid DC in spleen and pancreatic lymph nodes", "setting": "[5]; FL treatment of NOD mice", "value": "restored production"}, {"measurement": "Treg in pancreatic lymph nodes", "setting": "[5]; FL treatment of NOD mice", "value": "significantly increased"}, {"measurement": "Insulitis and progression to diabetes", "setting": "[5]; prediabetic NOD mice treated with FL", "value": "significantly decreased"}, {"measurement": "Percentage of CD19+ FC", "setting": "[6]; [10]", "value": "remained at same levels"}, {"measurement": "Percentage of p-preDC FC", "setting": "[6]; [10]", "value": "remained at same levels"}, {"measurement": "B220-/CD11c+/CD11b+ DC subpopulation in FL-PB FC", "setting": "[6]; [11]", "value": "significant increase"}, {"measurement": "NK1.1+DX5+ subpopulation in FL-PB FC", "setting": "[6]; [11]", "value": "significant increase"}, {"measurement": "Total number of FCs in peripheral blood", "setting": "[6]; [12]", "value": "expanded"}, {"measurement": "Activation state (dendritic morphology) of FL mobilized NOD PB FC", "setting": "[6]; versus untreated NOD BM FC, Wright-Giemsa", "value": "more activated state"}, {"measurement": "Recipients survived 120 days", "setting": "[7]; B10 recipients (950 cGy TBI) of 5,000 untreated NOD HSC plus 30,000 PB FC from FL-treated NOD mice, n=8", "value": 63, "unit": "%"}, {"measurement": "Engraftment of HSC", "setting": "[7]; HSC plus PB FC from FL-treated NOD mice in B10 recipients", "value": "significantly enhanced"}, {"measurement": "Multilineage donor chimerism", "setting": "[7]; recipients of HSC plus FL-PB FC, followed >4 months, three-color flow cytometry", "value": "showed donor chimerism for multilineages"}, {"measurement": "Facilitating function of NOD FC in vivo", "setting": "[7]; [12]", "value": "restored"}]}]}
